The record followed here is PubChem BioAssay AID330 (DTP/NCI, 2004).

“And” between values parts separate entries of the source, which are not always exact repeats. Equal entries are not always repeated. Toxic doses and inconclusive results are not listed.

In this assay the test system is P388 leukemia ip, CD2F1 mice, survival T/C. In words: NCI In Vivo Anticancer Drug Screen. Data for tumor model P388 Leukemia (intraperitoneal) in CD2F1 (CDF1) mice. Conditions: endpoint: median survival time, higher = longer survival. An outline of the steps: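 Mice carrying the transplanted tumor received test compound or vehicle. Survival was recorded in each group, and the value is the treated-group measurement divided by that of the vehicle-treated control group.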

The mark [1] stands for this setting: dose: 50.0 mg/kg/injection, schedule: Q01DX005 (ip), vehicle: saline with Tween-80.
Setting [2] is: dose: 100.0 mg/kg/injection, schedule: Q01DX005 (ip), vehicle: saline with Tween-80.
The mark [3] stands for this setting: dose: 200.0 mg/kg/injection, schedule: Q01DX005 (ip), vehicle: saline with Tween-80.
Setting [4] is: dose: 100.0 mg/kg/injection, schedule: Q01DX001 (ip), vehicle: Klucel (hydroxypropylcellulose) (HPC).
The mark [5] stands for this setting: dose: 200.0 mg/kg/injection, schedule: Q01DX001 (ip), vehicle: Klucel (hydroxypropylcellulose) (HPC).
The mark [6] stands for this setting: dose: 400.0 mg/kg/injection, schedule: Q01DX001 (ip), vehicle: Klucel (hydroxypropylcellulose) (HPC).
The mark [7] stands for this setting: dose: 50.0 mg/kg/injection, schedule: Q01DX009 (ip), vehicle: Klucel (hydroxypropylcellulose) (HPC).
The mark [8] stands for this setting: dose: 100.0 mg/kg/injection, schedule: Q01DX009 (ip), vehicle: Klucel (hydroxypropylcellulose) (HPC).
Where [9] appears, read: dose: 60.0 mg/kg/injection, schedule: Q01DX005 (ip), vehicle: saline with Tween-80.
[10] abbreviates: dose: 120.0 mg/kg/injection, schedule: Q01DX005 (ip), vehicle: saline with Tween-80.
[11] abbreviates: dose: 240.0 mg/kg/injection, schedule: Q01DX005 (ip), vehicle: saline with Tween-80.
The mark [12] stands for this setting: dose: 50.0 mg/kg/injection, schedule: Q01DX009 (ip), vehicle: saline with Tween-80.
Setting [13] is: dose: 100.0 mg/kg/injection, schedule: Q01DX009 (ip), vehicle: saline with Tween-80.
Where [14] appears, read: dose: 200.0 mg/kg/injection, schedule: Q01DX009 (ip), vehicle: saline with Tween-80.
[15] abbreviates: dose: 100.0 mg/kg/injection, schedule: Q04DX003 (ip), vehicle: saline with Tween-80.
The mark [16] stands for this setting: dose: 200.0 mg/kg/injection, schedule: Q04DX003 (ip), vehicle: saline with Tween-80.
Where [17] appears, read: dose: 400.0 mg/kg/injection, schedule: Q04DX003 (ip), vehicle: saline with Tween-80.
Where [18] appears, read: dose: 50.0 mg/kg/injection, schedule: Q01DX005 (ip), vehicle: Klucel (hydroxypropylcellulose) (HPC).

For `NC(N)=N/N=C/C=N/N=C(N)N`, the T/C was 118 % of control (dose: 6.25 mg/kg/injection, schedule: Q01DX009 (ip), vehicle: saline); 100 % of control (dose: 6.25 mg/kg/injection, schedule: Q04DX003 (ip), vehicle: saline); 100 % of control (dose: 12.5 mg/kg/injection, schedule: Q01DX009 (ip), vehicle: saline); 95 % of control and 100 % of control (dose: 25.0 mg/kg/injection, schedule: Q01DX009 (ip), vehicle: saline); 90 % of control and 100 % of control (dose: 25.0 mg/kg/injection, schedule: Q04DX003 (ip), vehicle: saline); 86 % of control and 100 % of control (dose: 50.0 mg/kg/injection, schedule: Q01DX009 (ip), vehicle: saline). Also, the T/C reads like this: (dose: 50.0 mg/kg/injection, schedule: Q04DX003 (ip), vehicle: saline) 100 % of control; (dose: 100.0 mg/kg/injection, schedule: Q01DX009 (ip), vehicle: saline) 86 % of control; (dose: 100.0 mg/kg/injection, schedule: Q04DX003 (ip), vehicle: saline) 95 % of control and 100 % of control.

For the molecule `Oc1ccc(-c2csc(Nc3ccccn3)n2)cc1O`, the T/C is, setting by setting: under setting [1], 98 % of control; under setting [2], 106 % of control; under setting [3], 104 % of control.

Consider `Cc1ccc(-c2nc3n(c2/C=N/NS(=O)(=O)c2ccc(C)cc2)CCS3)cc1`, for which the T/C by setting is: under setting [4], 100 % of control; under setting [5], 93 % of control; under setting [6], 91 % of control.

Take `C[Si](C)(C)S[Si](C)(C)C`: the T/C is 106 % of control under setting [7] and 100 % of control under setting [8].

`CC(C)CCCCCCCCCCCCC(=O)NCC(=O)NC1C(O)C(O)C(Nc2ncnc3nc[nH]c23)C(O)C1O` (stereo not given): the T/C by setting is: (dose: 0.5 mg/kg/injection, schedule: Q01DX009 (ip), vehicle: other) 105 % of control; (dose: 1.0 mg/kg/injection, schedule: Q01DX009 (ip), vehicle: other) 101 % of control; (dose: 2.0 mg/kg/injection, schedule: Q01DX009 (ip), vehicle: other) 91 % of control; (dose: 4.0 mg/kg/injection, schedule: Q01DX009 (ip), vehicle: other) 91 % of control; (dose: 8.0 mg/kg/injection, schedule: Q01DX009 (ip), vehicle: other) 101 % of control; (dose: 16.0 mg/kg/injection, schedule: Q01DX009 (ip), vehicle: other) 95 % of control. Moreover, under “dose: 32.0 mg/kg/injection, schedule: Q01DX009 (ip), vehicle: other”, the T/C was 90 % of control.

With `CCOC(=O)C(CC(=O)O)=C1c2ccccc2-c2ccccc21`, the T/C is, setting by setting: under setting [9], 104 % of control; under setting [10], 113 % of control; under setting [11], 107 % of control.

Take `C=CCN1C(=O)CS/C1=N\NC(=O)Cc1nc2ccccc2[nH]1`: the T/C reads like this: under setting [4], 101 % of control; under setting [5], 105 % of control; under setting [6], 92 % of control.

Consider `COc1ccccc1NC(=O)Oc1ccc(C(C)(CCC(=O)O)c2ccc(OC(=O)Nc3ccccc3OC)cc2)cc1`, for which the T/C reads like this: (dose: 25.0 mg/kg/injection, schedule: Q01DX005 (ip), vehicle: saline with Tween-80) 103 % of control; under setting [1], 101 % of control and 104 % of control and 97 % of control; under setting [2], 102 % of control and 105 % of control and 94 % of control; under setting [3], 90 % of control and 97 % of control; (dose: 400.0 mg/kg/injection, schedule: Q01DX005 (ip), vehicle: saline with Tween-80) 102 % of control.

On to `Cc1cccc(C)c1NC(=S)NC(=O)c1ccccc1`, for which the T/C is 100 % of control under setting [12], 98 % of control under setting [13] and 100 % of control under setting [14].

Regarding `Cn1nc(NC(=O)C(F)(F)F)c2ncc(-c3ccc(Cl)cc3)nc21`, the T/C by setting is: under setting [15], 100 % of control; under setting [16], 90 % of control; under setting [17], 90 % of control.

With `CCC1(c2ccccc2)C(=O)N(C)C(=O)N(CCCl)C1=O` (stereo not given), the T/C is 96 % of control under setting [7]; 98 % of control under setting [8]; 93 % of control (dose: 200.0 mg/kg/injection, schedule: Q01DX009 (ip), vehicle: Klucel (hydroxypropylcellulose) (HPC)).

Take `COc1cc2c(cc1O)C(CSC)Cc1cc(OC)c(OC)cc1N(C)CCC2` (stereo not given): the T/C is, setting by setting: under setting [15], 93 % of control; under setting [16], 87 % of control; under setting [17], 100 % of control.

`CC1=C(N2CC2)C(=O)c2ccccc2C1=O`: the T/C reads like this: under setting [7], 93 % of control; under setting [8], 90 % of control.

As to `CCOC(=O)C1CC1C(c1cccnc1C)S(=O)(=O)c1ccccc1` (stereo not given), the T/C was 100 % of control (dose: 100.0 mg/kg/injection, schedule: Q04DX002 (ip), vehicle: saline with Tween-80); 99 % of control (dose: 200.0 mg/kg/injection, schedule: Q04DX002 (ip), vehicle: saline with Tween-80); 97 % of control (dose: 400.0 mg/kg/injection, schedule: Q04DX002 (ip), vehicle: saline with Tween-80).

Consider `C=CN=NNc1ccc(C#N)cc1`, for which the T/C by setting is: under setting [15], 90 % of control; under setting [16], 106 % of control.

Turning to `CCOC(=O)c1cc(Cl)nc2ccc3ccccc3c12`, the T/C by setting is: under setting [1], 95 % of control; under setting [2], 98 % of control; under setting [3], 100 % of control.

Regarding `CC1CCC(C(=O)C(Cl)C(Cl)C2CCCCC2)CC1` (stereo not given), the T/C reads like this: under setting [18], 92 % of control; (dose: 100.0 mg/kg/injection, schedule: Q01DX005 (ip), vehicle: Klucel (hydroxypropylcellulose) (HPC)) 92 % of control.

In the case of `C=C(C(=O)N(C(C)C)C(C)C)C(C)C(C)(C)O` (stereo not given), the T/C (dose: 50.0 mg/kg/injection, schedule: Q04DX002 (ip), vehicle: Klucel (hydroxypropylcellulose) (HPC)) is 101 % of control and the T/C (dose: 100.0 mg/kg/injection, schedule: Q04DX002 (ip), vehicle: Klucel (hydroxypropylcellulose) (HPC)) was 101 % of control.

As to `CCC(O)C1Sc2ccccc2N1C` (stereo not given), the T/C reads like this: under setting [9], 104 % of control; under setting [10], 101 % of control; under setting [11], 106 % of control.

As to `CNC(=O)Nc1ccnc(=O)[nH]1`, under setting [18], the T/C is 116 % of control.

On to `COc1ccc(OC)c(/C=C2/C(=O)N(c3ccccc3)N=C2C)c1`, for which the T/C was 107 % of control (dose: 60.0 mg/kg/injection, schedule: Q01DX005 (ip), vehicle: Klucel (hydroxypropylcellulose) (HPC)); 105 % of control (dose: 120.0 mg/kg/injection, schedule: Q01DX005 (ip), vehicle: Klucel (hydroxypropylcellulose) (HPC)); 107 % of control (dose: 240.0 mg/kg/injection, schedule: Q01DX005 (ip), vehicle: Klucel (hydroxypropylcellulose) (HPC)).

As for `CCN(CC)CCNc1cc(C)nc2c1ccc1c2ccc2c(NCCN(CC)CC)cc(C)nc21`, the T/C is 104 % of control (dose: 12.5 mg/kg/injection, schedule: Q01DX009 (ip), vehicle: water); 113 % of control (dose: 25.0 mg/kg/injection, schedule: Q01DX009 (ip), vehicle: water); 97 % of control (dose: 50.0 mg/kg/injection, schedule: Q01DX009 (ip), vehicle: water).

In the case of `O=C1C=CC(=Nc2ccc(N(CCCl)CCCl)cc2)c2ccccc21`, the T/C reads like this: under setting [7], 171 % of control; under setting [8], 156 % of control and 181 % of control.

Consider `CCCCn1c(C)nc2cc(C(F)(F)F)cc(N)c21`, for which the T/C by setting is: under setting [12], 99 % of control; under setting [13], 101 % of control; under setting [14], 108 % of control.

Regarding `CCC(SC)C(=O)c1ccccc1` (stereo not given), the T/C was 114 % of control (dose: 25.0 mg/kg/injection, schedule: Q01DX009 (ip), vehicle: saline with Tween-80); 100 % of control under setting [12]; 101 % of control under setting [13].

As to `C=C1C2(OS(=O)(=O)C(F)(F)F)CCC(C2)C1(C)C` (stereo not given), the T/C was 103 % of control (dose: 60.0 mg/kg/injection, schedule: Q01DX005 (ip), vehicle: saline); 99 % of control (dose: 120.0 mg/kg/injection, schedule: Q01DX005 (ip), vehicle: saline); 100 % of control (dose: 240.0 mg/kg/injection, schedule: Q01DX005 (ip), vehicle: saline).

On to `NC(=S)CCCCCC(N)=S`, for which the T/C under setting [1] was 103 % of control, the T/C under setting [2] was 111 % of control and the T/C under setting [3] was 103 % of control.
